Reference: patent US20070027175A1, “Antineoplastic activities of ellipticine and its derivatives” (priority 2005, published 2007)

Columns and labels:
U266 cells [1] = assay: Flow cytometry apoptosis (Annexin V-FITC/7-AAD); assay type: cell-based, human; details: 12 hours, EPED3 2 μM, Velcade 0.5 μM
Procedure: (§1) FIGS. 14A-14L show flowcytometry analyses of cell viability and cell cycle arrest under EPED3 and Velcade treatments. U266 cells were co-cultured without contact with human fetal bone mesenchymal cells. Cells were untreated (Control; FIGS. 14A, 14D, 14G, 14J) or exposed to […] (FIGS. 14B, 14E, 14H, 14K) or […] (FIGS. 14C, 14F, 14I, 14L) for 12 hours and then harvested. Pan-caspase inhibitor Z-VAD-FMK ([…]) was also added to co-cultures (FIGS. 14D-14F and FIGS. 14J-14L) to block caspase-dependent apoptosis and then analyzed for cell cycling arrest. Percent cells in G0+G1 and G2+M phases were measured by the peaks of DNA helix and are gated with each graph (FIGS. 14A-14F). Percent cells with fragmented DNA are indicated as c % in each graph. Cells were also analyzed for apoptotic status (FIGS. 14G-14L) using Coulter Annexin-V FITC/7-AAD kit. Untreated cells (Control; FIGS. 14G and 14J) were maintained at high viability (90%). Early apoptotic cells were gated at G4, and necrotic cells were gated at G2; percent cells in each population are indicated with each graph. The arrows indicate percent viable cells ingested EPED3, whose fluorescent property was captured at channel FL4 (FIGS. 14H, 14K).
Apoptosis was detected using the Annexin V-fluorescein isothiocyanate (FITC)/7-AAD kit (Beckman Coulter, Inc.). Myeloma cells were harvested from co-culture inserts and washed in PBS; 5×10^5 cells were incubated on ice with 100 μl of binding buffer (10 μl Annexin V-FITC and 20 μl of 7-AAD) for 15 minutes. Samples were analyzed using EPICS XL-MCL flowcytometer equipped with EXPO32 ADC software (Beckman Coulter, Inc.).
(§2) To investigate the effects of EPED3 on apoptosis and cell cycle arrest of myeloma cells, U266 cells were exposed to EPED3 (2 μM) or Velcade (0.5 μM) in co-culture without direct contact with fetal human bone mesenchymal cells. Twelve hours after treatment, cells were harvested for using flow cytometry to detect ongoing apoptosis and cell cycle arrest.

U266 cells [2] = assay: Flow cytometry cell cycle arrest (DNA-Prep); assay type: cell-based, human; details: 12 hours; EPED3 2 μM, Velcade 0.5 μM
Procedure: as §1
Cell cycle arrest was measured using DNA-Prep Coulter Reagents kit (Beckman Coulter, Inc., Miami, Fla.). Myeloma cells were harvested from co-culture inserts and washed in phosphate buffered saline (PBS); 5×10^5 cells were stained according to the manufacturer's instructions. Samples were analyzed using EPICS XL-MCL flowcytometer equipped with EXPO32 ADC software (Beckman Coulter, Inc.).
as §2
The cell cycle arrest analysis was simultaneously performed to examine DNA helix in U266 cells at 12 hours. […] Furthermore, 7.2% of the EPED3-treated population was in G2+M phase as opposed to 25.4% of the control and 18.9% of Velcade-treated populations in the G2+M phase (FIG. 14A-14C).

U266 cells [3] = assay type: cell-based, human; details: for disruption of mitochondria (MitoTracker Red CMXRos): 6 hours, EPED3 2 mM, Velcade 0.5 mM
Source text: FIGS. 15A-15C show fluorescent images of EPED3 endoplasmic distribution and induction of apoptosis, which was also detected by Western Blot. […] For analysis by fluorescence microscopy, nuclei were stained with DAPI (blue), mitochondria with MitoTracker Red CMXRos (red), and cytochrome c with FITC-conjugated secondary antibodies (green); EPED3 is excited by ultraviolet light (wavelength<500 nm) and was visualized as gold.
The appearance of large cytoplasmic vacuoles (arrows) and diminished mitochondria in cells treated with EPED3 indicate ongoing apoptosis. […] Cytochrome c disassociation with mitochondria also indicates initiation of the intrinsic apoptotic pathway. […] Protein extracts ([…]) were analyzed by Western blotting, using goat anti-human Caspase-3, -8, and -9 polyclonal antibodies. […] In contrast, both EPED3 and Velcade treatments initiated the intrinsic pathway, which releases cytochrome c to induce rapid cleavage of Caspase-9 into its activated form. The consequent Caspase-3 activation indicates activity of the intracellular proteolytic cascade. Abbreviations: C=Medium control, E=EPED3, V=Velcade.
Myeloma cells were co-cultured with human fetal bone mesenchymal cells in the TC inserts. The cells were treated with individual antimyeloma agents at desired concentrations. An aliquot containing 10^6 cells was transferred to 24-well plate and mixed with MitoTracker Red CMXRos (Invitrogen) at 50 nM final concentration. After a 15-minute incubation, cells were collected and washed with PBS and resuspended at 5×10^5 cells/ml for slide adhesion by the Cytospinning method. […]
Autofluorescence of EPED3 was used to visually examine its effects on myeloma cells. […] Cells that ingested EPED3 were, therefore, discernible by the characteristic golden light emitted under fluorescence microscopy. […]
To further investigate effects of EPED3 on mitochondrial integrity and cytochrome c, treated U266 cells were immunohistochemically analyzed.

[4] = tested on: myeloma cell lines chronically exposed to Velcade; assay: Myeloma cell lines with acquired Velcade tolerance; assay type: cell-based
[5] = co-culture without direct contact
[6] = with pan-caspase inhibitor Z-VAD-FMK

Structure (SMILES)	apoptotic cells (U266 cells [1]; [5]) [%]	necrotic cells (U266 cells [1]; [5]) [%]	apoptotic cells (U266 cells [1]; [6]) [%]	necrotic cells (U266 cells [1]; [6]) [%]	population in G0+G1 phase (U266 cells [2]) [%]	population in G2+M phase (U266 cells [2]) [%]	cell uptake and distribution (autofluorescence) (U266 cells [3])	disruption of mitochondria (MitoTracker Red CMXRos) (U266 cells [3])	cross-tolerance of Velcade-tolerant cells ([4]; data not shown)	tolerance level after chronic exposure ([4]; in vitro chronic exposure to Velcade, several myeloma cell lines) [nM]
Cc1c2ccncc2c(C)c2c1[nH]c1ccc(OCCN(C)C)cc12 [NSC 338258, ellipticine, 9-dimethyl amino-ethoxy-]	36	9.7	8.9	18.9	67.5	7.2	instantly permeated the cells and distributed throughout the cytosol	Disruption of mitochondria	such Velcade-tolerance did not apply	
CC(C)C[C@H](NC(=O)[C@H](Cc1ccccc1)NC(=O)c1cnccn1)B(O)O [Velcade, bortezomib, reference compound]	20.6	31.3	25	2.8	59.8	18.9		mitochondrial disruption was not seen		> 5
